# Measurements reported in ChEMBL document CHEMBL2396531, “Hybrid molecule from O2-(2,4-dinitrophenyl)diazeniumdiolate and oleanolic acid: a glutathione S-transferase π-activated nitric oxide prodrug with selective anti-human hepatocellular carcinoma activity and improved stability” (J Med Chem, 2013).
# Tests used:
# Mus musculus [1] = assay: Acute toxicity in mouse assessed as mortality at 196.1 umol/kg, ip after 14 days; type: organism-based; conditions: in vivo, 336 h
# [2] = Chemical stability in PBS buffer at pH 7.4 in presence of 1 mM GSH at room temperature for 30 mins by spectrophotometry; type: physicochemical; conditions: pH 7.4, 0.5 h
# Bel-7402 [3] = assay: Cytotoxicity against human Bel7402 cells at 30 uM after 24 hrs by MTT assay; type: functional
# [4] = biological target: Glutathione S-transferase P (Homo sapiens, UniProt P09211); assay: Activity at GSTpi (unknown origin) assessed as compound decomposition in presence of 1mM GSH at 40 uM by microplate reader analysis; type: ADME
# H22 [5] = assay: Antitumor activity against mouse H22 cells […] in mouse assessed as inhibition of tumor growth at 38.3 umol/kg, ip after 14 days relative to vehicle-treated control; type: functional; conditions: 336 h
# H22 [6] = assay: Antitumor activity against mouse H22 cells […] in mouse assessed as inhibition of tumor growth at 9.6 umol/kg, ip after 14 days relative to vehicle-treated control; type: functional; conditions: 336 h
# HepG2 [7] = assay: Cytotoxicity against human HepG2 cells after 72 hrs by MTT assay; type: functional, cell-based; conditions: HepG2, 72 h
# Mus musculus [8] = assay: Acute toxicity in mouse assessed as mortality at 383.1 umol/kg, ip after 14 days; type: organism-based; conditions: in vivo, 336 h
# Mus musculus [9] = assay: Acute toxicity in mouse assessed as abnormality in drinking at 196.1 umol/kg, ip after 14 days; type: organism-based; conditions: in vivo, 336 h
# [10] = Cytotoxicity against human LO2 cells at 1 to 4 uM after 24 hrs by MTT assay; type: cell-based; conditions: l02, 24 h
# [11] = Activity at GSTalpha (unknown origin) assessed per mg protein by Michaelis-Menten equation; type: ADME; conditions: human
# Mus musculus [12] = assay: Acute toxicity in mouse assessed as activity at 196.1 umol/kg, ip after 14 days; type: organism-based; conditions: in vivo, 336 h
# HepG2 [13] = assay: Cytotoxicity against human HepG2 cells assessed as cell viability at 3 uM after 24 hrs by MTT assay in presence of EA; type: functional; conditions: HepG2, 24 h, read-out: Activity
# Plasma = assay: Metabolic stability in Sprague-Dawley rat plasma at 40 uM after 6 hrs by HPLC analysis; type: ADME, cell-free
# SMMC-7721 [14] = assay: Cytotoxicity against human SMMC7721 cells after 72 hrs by MTT assay; type: functional, cell-based; conditions: SMMC-7721, 72 h
# [15] = Activity at GSTalpha (unknown origin) assessed as compound decomposition in presence of 1mM GSH at 40 uM by microplate reader analysis; type: ADME; conditions: human
# SMMC-7721 [16] = assay: Cytotoxicity against human SMMC7721 cells at 30 uM after 24 hrs by MTT assay; type: functional
# HepG2 [17] = assay: Cytotoxicity against human HepG2 cells after 48 hrs by MTT assay; type: functional, cell-based; conditions: HepG2, 48 h
# HepG2 [18] = assay: Cytotoxicity against human HepG2 cells assessed as cell viability at 3 uM after 24 hrs by MTT assay; type: functional; conditions: HepG2, 24 h, read-out: Activity
# Mus musculus [19] = assay: Acute toxicity in mouse assessed as abnormality in eating at 196.1 umol/kg, ip after 14 days; type: organism-based; conditions: in vivo, 336 h
# HepG2 [20] = assay: Cytotoxicity against human HepG2 cells after 24 hrs by MTT assay; type: functional, cell-based; conditions: HepG2, 24 h
# [21] = Chemical stability in PBS buffer at pH 7.4 in presence of 5 mM GSH at 37 degC after 100 mins by HPLC analysis; type: physicochemical; conditions: PBS buffer with 5 mM GSH, read-out: Stability
# HepG2 [22] = assay: Induction of intracellular NO release in human HepG2 cells at 30 uM after 6 hrs by Griess assay relative to PABA/NO; type: functional
# HepG2 [23] = assay: Induction of intracellular NO release in human HepG2 cells at 30 uM after 6 hrs by Griess assay relative to JS-K; type: functional
# [24] = (§1) Activity at GSTalpha (unknown origin) by Michaelis-Menten equation; type: ADME; conditions: human
# GSTalpha = assay: as §1; type: ADME; conditions: human, GSTalpha enzyme
# HepG2 [25] = assay: Cytotoxicity against human HepG2 cells at 30 uM after 24 hrs by MTT assay; type: functional
# Bel-7402 [26] = assay: Cytotoxicity against human Bel7402 cells after 72 hrs by MTT assay; type: functional, cell-based; conditions: Bel-7402, 72 h
# Mus musculus [27] = assay: Acute toxicity in mouse assessed as body weight at 196.1 umol/kg, ip after 14 days; type: organism-based; conditions: in vivo, 336 h
# [28] = Metabolic stability in Sprague-Dawley rat plasma at 40 uM after 9 hrs by HPLC analysis; type: ADME, cell-free; conditions: read-out: Stability
# [29] = Acute toxicity in ip dosed mouse after 14 days; type: organism-based; conditions: in vivo
# H22 [30] = assay: Antitumor activity against mouse H22 cells […] in mouse assessed as inhibition of tumor growth at 19.2 umol/kg, ip after 14 days relative to vehicle-treated control; type: functional; conditions: 336 h
# H22 [31] = assay: Antitumor activity against mouse H22 cells […] in mouse assessed as inhibition of tumor growth at 153.8 umol/kg, ip after 14 days relative to vehicle-treated control; type: functional; conditions: 336 h
# [32] = Chemical stability in PBS buffer at pH 7.4 in presence of 4 mM GSH at 37 degC after 15 to 20 mins by HPLC analysis; type: physicochemical
# Chain of Glutathione S-transferase P (P09211 whole entry): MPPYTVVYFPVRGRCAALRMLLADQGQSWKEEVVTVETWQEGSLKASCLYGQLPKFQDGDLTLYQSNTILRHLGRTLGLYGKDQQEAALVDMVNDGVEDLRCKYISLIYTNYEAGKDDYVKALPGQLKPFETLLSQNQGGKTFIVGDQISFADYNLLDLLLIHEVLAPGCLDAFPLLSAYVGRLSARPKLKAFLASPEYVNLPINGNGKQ
structure (smiles),measurement,setting,value
CN(CCO)/[N+]([O-])=N\Oc1cc(N2CCN(CC(=O)O[C@H]3CC[C@]4(C)[C@H]5CC=C6[C@@H]7CC(C)(C)CC[C@]7(C(=O)O[C@@H]7O[C@H](CO)[C@H](O)[C@H](O)[C@H]7O)CC[C@@]6(C)[C@]5(C)CC[C@H]4C3(C)C)CC2)c([N+](=O)[O-])cc1[N+](=O)[O-],Activity,Mus musculus [1],Non-toxic
same,Stability,[2],Stable
same,Cytotoxicity,Bel-7402 [3],80%
same,Activity,[4],Active
same,inhibition in vivo at 38.3 µmol/kg,H22 [5],68.4%
same,inhibition in vivo at 9.6 µmol/kg,H22 [6],13.4%
same,IC50,HepG2 [7],1.41 µM
same,Activity,Mus musculus [8],Toxic
same,Activity,Mus musculus [9],Non-toxic
same,Activity,[10],Toxic
same,Vmax,[11],1.69 µmol/min
same,Activity,Mus musculus [12],Non-toxic
same,viability at 3 µM,HepG2 [13],41.7%
same,Stability,Plasma,Stable
same,IC50,SMMC-7721 [14],2.3 µM
same,Activity,[15],Active
same,Cytotoxicity,SMMC-7721 [16],80%
same,IC50,HepG2 [17],2.11 µM
same,viability at 3 µM,HepG2 [18],17%
same,Activity,Mus musculus [19],Non-toxic
same,IC50,HepG2 [20],3.38 µM
same,remaining at 100 min,[21],78%
same,Ratio,HepG2 [22],2
same,Ratio,HepG2 [23],2
same,Kcat,[24],0.72 s⁻¹
same,Km,GSTalpha,264 µM
same,Cytotoxicity,HepG2 [25],80%
same,IC50,Bel-7402 [26],1.45 µM
same,Activity,Mus musculus [27],Non-toxic
same,"remaining at 9 h, 40 µM",[28],80%
same,LD50 at 336 h,[29],250 µmol/kg
same,inhibition in vivo at 19.2 µmol/kg,H22 [30],36.1%
O=c1[nH]cc(F)c(=O)[nH]1 [FLUOROURACIL],inhibition in vivo at 153.8 µmol/kg,H22 [31],57.5%
CN(CCO)/[N+]([O-])=N\Oc1cc(NCCC(=O)O[C@H]2CC[C@]3(C)[C@H]4CC=C5[C@@H]6CC(C)(C)CC[C@]6(C(=O)O[C@@H]6O[C@H](CO)[C@H](O)[C@H](O)[C@H]6O)CC[C@@]5(C)[C@]4(C)CC[C@H]3C2(C)C)c([N+](=O)[O-])cc1[N+](=O)[O-],Cytotoxicity,Bel-7402 [3],>70%
same,IC50,HepG2 [7],2.05 µM
same,IC50,SMMC-7721 [14],3.97 µM
same,Cytotoxicity,SMMC-7721 [16],>70%
same,IC50,HepG2 [17],3.56 µM
same,IC50,HepG2 [20],5.45 µM
same,Cytotoxicity,HepG2 [25],>70%
same,IC50,Bel-7402 [26],2.36 µM
CN(CCO)/[N+]([O-])=N/Oc1cc(NCC(=O)O[C@H]2CC[C@]3(C)[C@H]4CC=C5[C@@H]6CC(C)(C)CC[C@]6(C(=O)O[C@@H]6O[C@H](CO)[C@H](O)[C@H](O)[C@H]6O)CC[C@@]5(C)[C@]4(C)CC[C@H]3C2(C)C)c([N+](=O)[O-])cc1[N+](=O)[O-],IC50,HepG2 [7],3.65 µM
same,IC50,SMMC-7721 [14],7.44 µM
same,IC50,HepG2 [17],6.65 µM
same,IC50,HepG2 [20],9.59 µM
same,IC50,Bel-7402 [26],5.68 µM
CCOC(=O)N1CCN(/[N+]([O-])=N/Oc2ccc([N+](=O)[O-])cc2[N+](=O)[O-])CC1,Stability,[2],Stable
same,Cytotoxicity,Bel-7402 [3],67%
same,IC50,HepG2 [7],5.19 µM
same,IC50,SMMC-7721 [14],7.31 µM
same,Cytotoxicity,SMMC-7721 [16],67%
same,IC50,HepG2 [17],7.12 µM
same,IC50,HepG2 [20],12.2 µM
same,Stability,[32],Unstable
same,Cytotoxicity,HepG2 [25],67%
same,IC50,Bel-7402 [26],5.17 µM
C[C@H](Nc1cc(O/N=[N+](\[O-])N(C)CCO)c([N+](=O)[O-])cc1[N+](=O)[O-])C(=O)O[C@H]1CC[C@]2(C)[C@H]3CC=C4[C@@H]5CC(C)(C)CC[C@]5(C(=O)O[C@@H]5O[C@H](CO)[C@H](O)[C@H](O)[C@H]5O)CC[C@@]4(C)[C@]3(C)CC[C@H]2C1(C)C,IC50,HepG2 [7],6.91 µM
same,IC50,SMMC-7721 [14],8.84 µM
same,IC50,HepG2 [17],7.89 µM
same,IC50,HepG2 [20],9.12 µM
same,IC50,Bel-7402 [26],7.38 µM
